{"source": "patent US11297839B2", "about": "“Stable compositions of uncomplexed iodine and methods of use” (ioTech International, Inc., priority 2014, dated 2022)"}
{"experiment": "Compatibility of biocides with 300 ppm molecular iodine base composition", "settings": "biocide added at increasing concentrations to 300 ppm molecular iodine base, iodate excess 2; 6 weeks"}
{"compound": "OO", "note": "[hydrogen peroxide]", "compatibility with molecular iodine (colour, thiosulfate titratable iodine)": "did not reduce thiosulfate titratable iodine"}
{"compound": "CCCO", "note": "[Formulation 1-propanol, 1-propanol]", "compatibility with molecular iodine (colour, thiosulfate titratable iodine)": "did not reduce thiosulfate titratable iodine"}
{"compound": "CCCCCCCC(=O)O", "note": "[octanoic acid]", "compatibility with molecular iodine (colour, thiosulfate titratable iodine)": "did not reduce thiosulfate titratable iodine"}
{"compound": "CC(C)O", "note": "[Formulation 2-propanol, 2-propanol]", "compatibility with molecular iodine (colour, thiosulfate titratable iodine)": "did not reduce thiosulfate titratable iodine"}
{"compound": "CCO", "note": "[ethanol]", "compatibility with molecular iodine (colour, thiosulfate titratable iodine)": "did not reduce thiosulfate titratable iodine"}
{"compound": "CC(=O)OO", "note": "[peracetic acid]", "compatibility with molecular iodine (colour, thiosulfate titratable iodine)": "did not reduce thiosulfate titratable iodine"}
{"experiment": "Compatibility of surface active agents with molecular iodine base composition", "type": "physicochemical", "settings": "985 micromolar molecular iodine base with n-propanol, peracetic acid, hydrogen peroxide, iodate, citric acid; 37 degrees centigrade 6 weeks", "experimental": "A further objective of this invention was to incorporate surface active agents in the compositions contemplated in this application to enhance the cleaning and wetting properties of said compositions. A series of surface active agents were screened to insure their compatibility with the molecular iodine based composition contemplated in this application. A 985 micromolar concentration of molecular iodine was prepared by dissolving elemental iodine crystals in a sealed glass volumetric flask containing the base composition. […] Samples of the following surface active agents or classes of surface active agents were obtained from various manufacturers and evaluated for compatibility with molecular iodine."}
{"compound": "nonylphenoxypolyethyleneoxy ethanol sulfate", "compatibility of surface active agent with molecular iodine composition": "compatible at all concentrations tested"}
{"compound": "CCCCCCCCCCCC(=O)OCC(O)CO", "note": "(stereo not shown) [dodecanoic acid 2,3-dihydroxypropyl ester]", "compatibility of surface active agent with molecular iodine composition": "compatible at all concentrations tested"}
{"compound": "CCCCCCCCC(=O)OCC(O)CO", "note": "(stereo not shown) [nonanoic acid 2,3-dihydroxypropyl ester]", "compatibility of surface active agent with molecular iodine composition": "compatible at all concentrations tested"}
{"compound": "CCCCCCCC(=O)O", "note": "[capryllic acid]", "compatibility of surface active agent with molecular iodine composition": "compatible at all concentrations tested"}
